Patent publication US7696251B2, “Method for inhibiting neuronal cell death induced by oxidative glutamate toxicity” (Incorporated National University Iwate University, priority 2007, dated 2010)
Read-outs that look alike come from different tables or passages of the source.

Legend:
HT22 cells [1] = assay: Oxidative glutamate toxicity in HT22 cells, MTT assay; type: cell-based, mouse; conditions: for IC50: Mus musculus, read-out: concentration of half inhibition (IC50) of oxidative glutamate toxicity
Procedure: (§1) DPPD and its derivatives, shown in FIG. 1, were obtained from Ouchi Shinko Chemical Industrial (Tokyo, Japan). The compounds were dissolved in dimethyl sulfoxide (DMSO). The final concentration of DMSO in the culture medium was 0.1%. TNFα, actinomycin D (AcD), XA, XO, glutamate and H2O2 were purchased from Sigma (St. Louis, Mo., USA). HT22 cells were cultured and MTT assays were performed as described previously. Experiments presented here were repeated at least 3 times with 4 samples for each determination. The data are presented as the mean ±SD (for in vitro experiments). In order to examine the neuroprotective effects of DPPD, we employed the following 4 death-inducing agents: 1) glutamate (oxidative stress, transcription-dependent), 2) TNFα (receptor-mediated apoptosis, transcription-independent), 3) H2O2 (oxidative stress, transcription-independent) and 4) XA+XO (oxidative stress, transcription-independent). In FIG. 1, squares, DPPD; circles, D1; triangles, D2. […] HT22 cells were seeded into 24-well plates at a density of 4×10^4 cells/cm^2. After a 5-hr incubation, various concentrations of the compounds were added. One hour later, 5 mM of glutamate was added to the cultures, and 20 h thereafter, the cells were subjected to the MTT assay. The values, which represent the percentage of the control MTT activity, are means ±S.D.s (n=4).
In order to determine whether the inhibition was substantially specific to cell death by oxidative glutamate toxicity, the effects of these compounds on the cell death induced by various stimuli were examined. Adverting to FIGS. 2A, 2B, 2C and 2D, 2HT22 cells were seeded into 24-well plates at a density of 4×10^4 cells/cm^2. After a 5-hr incubation, various concentrations of DPPD were added. One hour later, the cells were treated for 20 h with glutamate (A), TNFα in the presence of 0.1 μg/ml AcD (B), H2O2 (C) and XO in the presence of 0.1 mg/ml of XA (D) and then were subjected to the MTT assay. The values, which represent the percentage of the control MTT activity, are means ±S.D.s (n=4).

PC12 cells = conditions: DPPD at μM concentrations; associated with decrease in intracellular ROS levels [13]; cited from earlier work
HT22 cells [2] = assay: H2O2-induced cell death of HT22 cells, MTT assay; type: cell-based, mouse; conditions: 30 or 50 μM H2O2, 20 h, MTT (FIG. 2C)
Procedure: as §1, with “(n=4). […]” for “(n=4).”

HT22 cells [3] = assay: XA+XO-induced cell death of HT22 cells, MTT assay; type: cell-based, mouse; conditions: 15 or 30 mU/ml XO with 0.1 mg/ml XA, 20 h, MTT (FIG. 2D)
Procedure: as §1, with “(n=4). […]” for “(n=4).”

HT22 cells [4] = assay: TNFα-induced cell death of HT22 cells (with AcD), MTT assay; type: cell-based, mouse; conditions: 0.1 or 1.0 ng/ml TNFα with 0.1 μg/ml AcD, 20 h, MTT (FIG. 2B)
Procedure: as §1, with “(n=4). […]” for “(n=4).”

[5] = HT-22, HT22 cells, 5 mM glutamate, 20 h, MTT assay

SMILES | IC50 (HT22 cells [1]; HT-22, 20 h) [nM] | IC50 (HT22 cells [1]; [5]) [nM] | also measured
CC(C)Nc1ccc(Nc2ccccc2)cc1 [D1] | 5.4 |  | 
Nc1ccc(Nc2ccccc2)cc1 [D2] |  | 26 | 
Nc1ccc(N)cc1 [D3] | 879 |  | 
Nc1ccccc1 [D4] |  | 94000 | 
c1ccc(Nc2ccc(Nc3ccccc3)cc2)cc1 [DPPD, N,N′-Diphenyl-p-phenylenediamine] | 7.7 |  | protection of PC12 cells against lipid peroxide (PC12 cells): protected; protection against death induced by glutamate (HT22 cells [1]; DPPD at 1-10 nM, 5 or 10 mM glutamate, 20 h, MTT (FIG. 2A)): almost completely blocked; protection against H2O2-induced cell death (HT22 cells [2]): did not substantially protect; protection against XA+XO-induced cell death (HT22 cells [3]): did not substantially protect; protection against TNFα-induced neuronal death (HT22 cells [4]): substantially ineffective
